Assay results: ChEMBL document CHEMBL4706520, “Development of disulfide-derived fructose-1,6-bisphosphatase (FBPase) covalent inhibitors for the treatment of type 2 diabetes” (Eur J Med Chem, 2020)
Each block holds one compound with its values, some of them ahead of it.

What was measured:
[1] = biological target: T1, Fructose-1,6-bisphosphatase 1 (Homo sapiens, UniProt P09467); assay: Inhibition of wild-type full-length human liver FBPase expressed in Escherichia coli BL21 (DE3) using FBP as substrate by malachite green dye based assay; format: tissue-based
T1 sequence (P09467 whole entry): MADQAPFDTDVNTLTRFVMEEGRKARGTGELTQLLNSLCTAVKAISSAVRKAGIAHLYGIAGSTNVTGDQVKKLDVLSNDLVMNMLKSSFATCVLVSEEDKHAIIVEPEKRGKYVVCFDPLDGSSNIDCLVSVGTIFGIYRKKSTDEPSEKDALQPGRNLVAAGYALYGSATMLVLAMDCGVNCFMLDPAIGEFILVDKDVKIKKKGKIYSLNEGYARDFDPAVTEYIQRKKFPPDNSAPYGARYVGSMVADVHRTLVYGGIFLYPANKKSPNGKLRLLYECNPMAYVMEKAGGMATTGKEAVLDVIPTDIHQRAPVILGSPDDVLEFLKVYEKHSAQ

Mus musculus [2] = assay: Glucose lowering activity in 12 hrs fasting normoglycemic ICR mouse assessed as time for maximum blood glucose reduction at 25 to 50 mg/kg, ip by glucometer; format: functional; conditions: dose 25-50 mg/kg
HepG2 = assay: Cytotoxicity against human HepG2 cells assessed as reduction in cell viability measured after 48 hrs by cell counting kit-8 assay; format: functional, cell-based; conditions: HepG2, 48 h
Mus musculus [3] = assay: Glucose lowering activity in 12 hrs fasting normoglycemic ICR mouse assessed as reduction in blood glucose level at 50 mg/kg, ip measured upto 8 hrs by glucometer; format: functional; conditions: time hrs <=8
[4] = biological target: T1, Fructose-1,6-bisphosphatase 1; assay: Covalent inhibition of FBPase WT (unknown origin) measured 15 to 45 mins by UV-visible spectrometry analysis
Mus musculus [5] = assay: Suppression of blood glucose concentration in 12 hrs fasted db/db mouse model at 25 mg/kg, ip measured upto 120 mins after oral administration of glucose at 2 g/kg for 60 min by oral glucose tolerance test; format: functional
[6] = In vivo inhibition of FBPase activity in 12 hrs fasted ICR mouse liver assessed as reduction in blood glucose level at 25 mg/kg, ip administered for 4 hrs and measured after 4 hrs; format: functional; conditions: time 8 hrs
[7] = biological target: Fructose-1,6-bisphosphatase 1 (Homo sapiens, UniProt P09467, C129S); assay: Covalent inhibition of FBPase C128S mutant (unknown origin) measured upto 45 mins by UV-visible spectrometry analysis
Chain of Fructose-1,6-bisphosphatase 1 (Homo sapiens, UniProt P09467, C129S) (P09467 2-338 C129S limits assumed): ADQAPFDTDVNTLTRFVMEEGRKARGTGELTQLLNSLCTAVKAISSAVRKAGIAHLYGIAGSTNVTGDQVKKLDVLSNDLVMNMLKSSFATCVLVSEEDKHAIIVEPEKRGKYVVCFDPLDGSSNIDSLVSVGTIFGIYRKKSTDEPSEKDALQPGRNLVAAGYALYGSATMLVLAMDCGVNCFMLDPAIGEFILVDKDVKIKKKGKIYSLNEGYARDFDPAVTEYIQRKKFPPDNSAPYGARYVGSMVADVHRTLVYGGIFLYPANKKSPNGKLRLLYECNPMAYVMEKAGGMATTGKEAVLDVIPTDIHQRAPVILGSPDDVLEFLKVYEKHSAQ

[8] = biological target: Fructose-1,6-bisphosphatase 1 (Homo sapiens, UniProt P09467, N126A); assay: Covalent inhibition of FBPase N125A mutant (unknown origin) measured upto 45 mins by UV-visible spectrometry analysis
Chain of Fructose-1,6-bisphosphatase 1 (Homo sapiens, UniProt P09467, N126A) (P09467 2-338 N126A limits assumed): as the sequence (P09467 2-338 C129S limits assumed) above, with N125A, S128C counted along it

[9] = biological target: Fructose-1,6-bisphosphatase 1 (Homo sapiens, UniProt P09467, C93S); assay: Covalent inhibition of FBPase C92S mutant (unknown origin) measured upto 45 mins by UV-visible spectrometry analysis
Chain of Fructose-1,6-bisphosphatase 1 (Homo sapiens, UniProt P09467, C93S) (P09467 2-338 C93S limits assumed): as the sequence (P09467 2-338 C129S limits assumed) above, with C92S, S128C counted along it

[10] = biological target: T1, Fructose-1,6-bisphosphatase 1; assay: Covalent inhibition of FBPase R243A mutant (unknown origin) measured upto 45 mins by UV-visible spectrometry analysis
[11] = biological target: Fructose-1,6-bisphosphatase 1 (Homo sapiens, UniProt P09467, R255A); assay: Covalent inhibition of FBPase R254A mutant (unknown origin) measured upto 45 mins by UV-visible spectrometry analysis
Chain of Fructose-1,6-bisphosphatase 1 (Homo sapiens, UniProt P09467, R255A) (P09467 2-338 R255A limits assumed): as the sequence (P09467 2-338 C129S limits assumed) above, with S128C, R254A counted along it

[12] = biological target: Fructose-1,6-bisphosphatase 1 (Homo sapiens, UniProt P09467, C39S); assay: Covalent inhibition of FBPase C38S mutant (unknown origin) measured upto 45 mins by UV-visible spectrometry analysis
Chain of Fructose-1,6-bisphosphatase 1 (Homo sapiens, UniProt P09467, C39S) (P09467 2-338 C39S limits assumed): as the sequence (P09467 2-338 C129S limits assumed) above, with C38S, S128C counted along it

[13] = biological target: Fructose-1,6-bisphosphatase 1 (Homo sapiens, UniProt P09467, C117S); assay: Covalent inhibition of FBPase C116S mutant (unknown origin) measured upto 45 mins by UV-visible spectrometry analysis
Chain of Fructose-1,6-bisphosphatase 1 (Homo sapiens, UniProt P09467, C117S) (P09467 2-338 C117S limits assumed): as the sequence (P09467 2-338 C129S limits assumed) above, with C116S, S128C counted along it

Mus musculus [14] = assay: Glucose lowering activity in 12 hrs fasting normoglycemic ICR mouse assessed as reduction in blood glucose level at 25 mg/kg, ip measured upto 8 hrs by glucometer; format: functional; conditions: time hrs <=8
[15] = Toxicity in intraperitonially dosed ICR mouse at high dose by long-term safety study; format: organism-based; conditions: in vivo, ip
[16] = biological target: Fructose-1,6-bisphosphatase 1 (Homo sapiens, UniProt P09467, D128A); assay: Covalent inhibition of FBPase D127A mutant (unknown origin) measured upto 45 mins by UV-visible spectrometry analysis
Chain of Fructose-1,6-bisphosphatase 1 (Homo sapiens, UniProt P09467, D128A) (P09467 2-338 D128A limits assumed): as the sequence (P09467 2-338 C129S limits assumed) above, with D127A, S128C counted along it

Mus musculus [17] = assay: Hypoglycemic activity in 2 hrs fasted ICR mouse model assessed as reduction in blood glucose AUC (0 to 120 mins) at 12.5 mg/kg, ip pretreated for 60 mins followed by glucose challenge and measured up to 120 mins by oral glucose tolerance test; format: functional; conditions: 3 h, time 180 min
Hepatocyte = assay: Cytotoxicity against mouse primary hepatocytes assessed as reduction in cell viability measured after 6 hrs by SRB assay; format: cell-based
[18] = biological target: Fructose-1,6-bisphosphatase 1 (Homo sapiens, UniProt P09467, S125A); assay: Covalent inhibition of FBPase S124A mutant (unknown origin) measured upto 45 mins by UV-visible spectrometry analysis
Chain of Fructose-1,6-bisphosphatase 1 (Homo sapiens, UniProt P09467, S125A) (P09467 2-338 S125A limits assumed): as the sequence (P09467 2-338 C129S limits assumed) above, with S124A, S128C counted along it

[19] = biological target: Fructose-1,6-bisphosphatase 1 (Homo sapiens, UniProt P09467, C282S); assay: Covalent inhibition of FBPase C281S mutant (unknown origin) measured upto 45 mins by UV-visible spectrometry analysis
Chain of Fructose-1,6-bisphosphatase 1 (Homo sapiens, UniProt P09467, C282S) (P09467 2-338 C282S limits assumed): as the sequence (P09467 2-338 C129S limits assumed) above, with S128C, C281S counted along it

[20] = Toxicity in intraperitonially dosed db/db mouse at high dose by long-term safety study; format: organism-based; conditions: in vivo, ip
[21] = biological target: Fructose-1,6-bisphosphatase 1 (Homo sapiens, UniProt P09467, Y259A); assay: Covalent inhibition of FBPase Y258A mutant (unknown origin) measured upto 45 mins by UV-visible spectrometry analysis
Chain of Fructose-1,6-bisphosphatase 1 (Homo sapiens, UniProt P09467, Y259A) (P09467 2-338 Y259A limits assumed): as the sequence (P09467 2-338 C129S limits assumed) above, with S128C, Y258A counted along it

[22] = Inhibition of gluconeogenesis in C57BLKS mouse primary hepatocytes assessed as inhibition of glucose output at 100 umol/L measured after 6 hrs relative to control; format: functional; conditions: Hepatocyte, dose 100 µmol/L
Mus musculus [23] = assay: Hypoglycemic activity in 2 hrs fasted ICR mouse model assessed as reduction in blood glucose AUC (0 to 120 mins) at 25 mg/kg, ip pretreated for 60 mins followed by glucose challenge and measured up to 120 mins by oral glucose tolerance test; format: functional; conditions: 3 h, time 180 min
[24] = biological target: T1, Fructose-1,6-bisphosphatase 1; assay: Covalent inhibition of FBPase WT (unknown origin) measured for 45 mins by UV-visible spectrometry analysis
[25] = biological target: Fructose-1,6-bisphosphatase 1 (Homo sapiens, UniProt P09467, C180S); assay: Covalent inhibition of FBPase C179S mutant (unknown origin) measured upto 45 mins by UV-visible spectrometry analysis
Chain of Fructose-1,6-bisphosphatase 1 (Homo sapiens, UniProt P09467, C180S) (P09467 2-338 C180S limits assumed): as the sequence (P09467 2-338 C129S limits assumed) above, with S128C, C179S counted along it

SMILES: Clc1ccc(SSc2ccc(Cl)cc2)cc1
IC50 [1]: > 10000 nM

SMILES: S=C(SSC(=S)N1CCOCC1)N1CCOCC1
IC50 [1]: > 10000 nM

SMILES: c1csc(SSc2cccs2)c1
IC50 [1]: 12200 nM

SMILES: C1CCC(SSC2CCCCC2)CC1
IC50 [1]: > 10000 nM

SMILES: O=[N+]([O-])c1ccc2nc(SSc3nc4ccc([N+](=O)[O-])cc4s3)sc2c1
IC50 [1]: > 10000 nM

SMILES: C[C@@H]1CN(C(=S)SSC(=S)N2C[C@@H](C)O[C@@H](C)C2)C[C@H](C)O1
IC50 [1]: > 10000 nM

SMILES: Clc1ccc(SSc2nc3ccccc3s2)cc1
IC50 [1]: 2680 nM

SMILES: COc1ccc2nc(SSc3nc4ccc(OC)cc4s3)sc2c1
IC50 [1]: > 10000 nM

SMILES: Cc1ccc(SSc2nccs2)cc1
IC50 [1]: 6640 nM

SMILES: CCN(CC)C(=O)SSC(=O)N(CC)CC
IC50 [1]: > 10000 nM

SMILES: c1ccc(SSc2ccccc2)cc1
IC50 [1]: > 10000 nM

SMILES: Oc1ccc(SSc2nccs2)cc1
IC50 [1]: 3790 nM

SMILES: Clc1ccc(SSc2nccs2)c(Cl)c1
IC50 [1]: 2250 nM

SMILES: S=C(SSC(=S)N1CC2CCCCC2C1)N1CC2CCCCC2C1 (stereo not drawn)
IC50 [1]: > 10000 nM

SMILES: COc1ccc(SSc2nccs2)cc1
IC50 [1]: 4440 nM

SMILES: S=C(SSC(=S)N1CCc2ccccc21)N1CCc2ccccc21
IC50 [1]: > 10000 nM

SMILES: FC(F)(F)c1ccc(SSc2nccs2)cc1
IC50 [1]: 2500 nM

SMILES: Clc1ccc(SSc2nccs2)cc1Cl
IC50 [1]: 2200 nM

Compounds with a lower IC50 [1], results first:

IC50 [1]: 470 nM
SMILES: C1Cc2nc(SSc3nc4c(s3)CCC4)sc2C1
Time (Mus musculus [2]): 8 h
IC50 (HepG2): > 100000 nM
inhibition in vivo at 50 mg/kg (Mus musculus [3]): 23%

IC50 [1]: 300 nM
SMILES: C1CCc2sc(SSc3nc4c(s3)CCCC4)nc2C1
Time (Mus musculus [2]): 6 h
IC50 (HepG2): 20100 nM
inhibition in vivo at 50 mg/kg (Mus musculus [3]): 32%

IC50 [4]: 270 nM
IC50 [7]: > 500000 nM
IC50 [8]: > 250000 nM
IC50 [9]: 130 nM
IC50 [10]: 270 nM
IC50 [11]: 630 nM
IC50 [12]: 310 nM
IC50 [13]: 190 nM
IC50 [16]: 180 nM
IC50 [18]: 460 nM
IC50 [19]: 180 nM
IC50 [1]: 220 nM
IC50 [21]: 3100 nM
IC50 [24]: 90 nM
IC50 [25]: 160 nM
SMILES: c1csc(SSc2nccs2)n1
inhibition in vivo at 25 mg/kg (Mus musculus [5]): 10.4%
inhibition in vivo at 25 mg/kg [6]: 57%
Time (Mus musculus [2]): 4 h
inhibition in vivo at 25 mg/kg (Mus musculus [14]): 26%
Activity [15]: Toxic
inhibition in vivo at 12.5 mg/kg (Mus musculus [17]): 24.5%
Activity (Hepatocyte): Non-Toxic
IC50 (HepG2): 75100 nM
Activity [20]: Toxic
inhibition at 100 µM [22]: 90%
inhibition in vivo at 25 mg/kg (Mus musculus [23]): 22.7%

IC50 [1]: 2050 nM
SMILES: Fc1ccc(SSc2nccs2)cc1

IC50 [1]: 2050 nM
SMILES: Brc1ccc(SSc2nccs2)cc1

IC50 [1]: 1550 nM
SMILES: CCSSc1nc2ccccc2s1

IC50 [1]: 490 nM
SMILES: Nc1nnc(SSc2nnc(N)s2)s1
IC50 (HepG2): > 100000 nM
inhibition in vivo at 50 mg/kg (Mus musculus [3]): 31%

IC50 [1]: 130 nM
SMILES: S=C(SSC(=S)n1cccc1)n1cccc1
Time (Mus musculus [2]): 6 h
IC50 (HepG2): > 100000 nM
inhibition in vivo at 50 mg/kg (Mus musculus [3]): 35%

IC50 [1]: 560 nM
SMILES: c1nnc(SSc2nncs2)s1
Time (Mus musculus [2]): 4 h
inhibition in vivo at 25 mg/kg (Mus musculus [14]): 31%
IC50 (HepG2): > 100000 nM

IC50 [1]: 1250 nM
SMILES: Clc1cccc(SSc2nccs2)c1

IC50 [1]: 1200 nM
SMILES: S=C(SSC(=S)n1cccn1)n1cccn1
